The subject of this assay is base pair RNA (UU internal loops replaced with AU base pairs). Briefly: 1D imino proton NMR with base pair control RNA. The settings on record: 50 µM RNA, 100 µM compound. In kind it is binding. As for the experimental part:
NMR spectra were recorded on a 700 MHz Bruker Avance III spectrometer equipped with a cryogenic probe. RNAs (r(GACC-UGCU-GGU-GAAA-ACC-UGC-UGG-UC) where the underlined Us indicate the internal loop nucleotides and bold indicate a GNRA hairpin) and (r(GACC-AGCU-GGU-GAAA-ACCA-GCU-GGUC) where UU internal loops were replaced with AU base pairs) were purchased from Dharmacon, HPLC purified, deprotected and desalted. The RNA (50 μM) was dissolved in NMR Buffer (5 mM KH2PO4/K2HPO4, 0.25 mM EDTA, pH 6.0) or NMR Buffer supplemented with 50 mM NaCl and reannealed by heating to 95 °C for 3 min, and then slowly cooling the sample to room temperature before adding to Shigemi NMR tubes (Shigemi, Inc.).
1D ^1H NMR spectra of exchangeable (imino) protons were acquired in 5% D2O and 95% H2O at 9 °C using 50 μM of RNA in the absence of compound. Compounds were then dissolved in D6-DMSO and added to the RNA sample to achieve a final concentration of 100 μM (1:2 RNA:compound). The chemical shifts were referenced to the residual solvent peaks of D6-DMSO, which served as the internal calibration standard. NMR spectra were processed in Topspin 4.0.6.

As for `COc1ccc(CCNC(=O)c2cc3c(N4CCCC4)nc(C)cn3n2)cc1OC` [A6], the “binding to base pair RNA (1D imino proton spectra)” value is listed as “does not bind”.

Values taken from article PMC12670313 (ACS Central Science, 2025).
